Key:
[1] = biological target: T1, Type-2 angiotensin II receptor (Homo sapiens, UniProt P50052); test: biochemical; assay type: cell-based, CHO-K1; conditions: cho-k1; further: in other assays of this panel Not Active means under 50% inhibition at 10 µM
T1 sequence (P50052 whole entry): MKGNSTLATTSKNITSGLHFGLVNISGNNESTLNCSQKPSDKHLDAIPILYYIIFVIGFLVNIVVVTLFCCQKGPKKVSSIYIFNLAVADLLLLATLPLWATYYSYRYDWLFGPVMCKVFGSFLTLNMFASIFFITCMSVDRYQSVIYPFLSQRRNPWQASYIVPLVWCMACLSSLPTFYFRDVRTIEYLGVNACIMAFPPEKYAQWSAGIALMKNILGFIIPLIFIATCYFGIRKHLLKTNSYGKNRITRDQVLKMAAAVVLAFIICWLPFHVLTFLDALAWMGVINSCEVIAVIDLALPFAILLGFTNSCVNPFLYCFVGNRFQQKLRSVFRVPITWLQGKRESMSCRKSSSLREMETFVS

Carbonic anhydrase 2 = Carbonic anhydrase 2 (Homo sapiens, UniProt P00918); test: DRUGMATRIX: Carbonic Anhydrase II enzyme inhibition (substrate: 4-Nitrophenyl acetate (4-NPA)); assay type: tissue-based, Erythrocyte; conditions: erythrocyte; Not Active = under 50% inhibition at 10 µM
[2] = biological target: C-C chemokine receptor type 5 (Homo sapiens, UniProt P51681); assay type: cell membranes, Membrane; conditions: hek293; further: in other assays of this panel Not Active means under 50% inhibition at 10 µM
[3] = biological target: T2, C-X-C chemokine receptor type 1 (Homo sapiens, UniProt P25024); further: in other assays of this panel Not Active means under 50% inhibition at 10 µM
T2 sequence (P25024 whole entry): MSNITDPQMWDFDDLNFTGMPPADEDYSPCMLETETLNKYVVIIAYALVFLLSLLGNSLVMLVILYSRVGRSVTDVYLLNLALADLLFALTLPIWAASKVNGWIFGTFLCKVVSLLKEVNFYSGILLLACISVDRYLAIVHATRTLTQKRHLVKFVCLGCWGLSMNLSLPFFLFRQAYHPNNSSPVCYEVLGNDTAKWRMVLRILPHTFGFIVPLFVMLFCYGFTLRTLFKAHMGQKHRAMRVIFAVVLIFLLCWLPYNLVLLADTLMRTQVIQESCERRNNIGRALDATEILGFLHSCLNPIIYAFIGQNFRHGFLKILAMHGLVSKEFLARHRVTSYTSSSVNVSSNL

[4] = DRUGMATRIX: GABAA, Flunitrazepam, Central radioligand binding (ligand: [3H] Flunitrazepam); assay type: cell membranes, Rattus norvegicus, Wistar, Brain, Membrane; conditions: Not Active = under 50% inhibition at 10 µM
[5] = biological target: T3, Neuropeptide Y receptor type 1 (Homo sapiens, UniProt P25929); assay type: cell membranes, Membrane; conditions: sk-n-mc; further: in other assays of this panel Not Active means under 50% inhibition at 10 µM
T3 sequence (P25929 whole entry): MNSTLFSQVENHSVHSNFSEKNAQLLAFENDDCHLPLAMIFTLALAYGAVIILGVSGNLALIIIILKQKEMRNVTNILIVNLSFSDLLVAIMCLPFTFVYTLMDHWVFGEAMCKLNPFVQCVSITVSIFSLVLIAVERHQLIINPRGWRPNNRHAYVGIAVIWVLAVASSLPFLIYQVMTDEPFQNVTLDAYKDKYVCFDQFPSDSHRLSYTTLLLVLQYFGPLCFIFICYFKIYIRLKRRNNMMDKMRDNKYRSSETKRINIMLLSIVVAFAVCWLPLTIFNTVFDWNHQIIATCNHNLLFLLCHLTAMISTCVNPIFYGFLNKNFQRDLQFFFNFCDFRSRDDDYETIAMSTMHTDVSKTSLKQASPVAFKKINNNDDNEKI

[6] = biological target: T4, Neuropeptide Y receptor type 2 (Homo sapiens, UniProt P49146); assay type: cell membranes, Membrane; conditions: kan-ts; further: in other assays of this panel Not Active means under 50% inhibition at 10 µM
T4 sequence (P49146 whole entry): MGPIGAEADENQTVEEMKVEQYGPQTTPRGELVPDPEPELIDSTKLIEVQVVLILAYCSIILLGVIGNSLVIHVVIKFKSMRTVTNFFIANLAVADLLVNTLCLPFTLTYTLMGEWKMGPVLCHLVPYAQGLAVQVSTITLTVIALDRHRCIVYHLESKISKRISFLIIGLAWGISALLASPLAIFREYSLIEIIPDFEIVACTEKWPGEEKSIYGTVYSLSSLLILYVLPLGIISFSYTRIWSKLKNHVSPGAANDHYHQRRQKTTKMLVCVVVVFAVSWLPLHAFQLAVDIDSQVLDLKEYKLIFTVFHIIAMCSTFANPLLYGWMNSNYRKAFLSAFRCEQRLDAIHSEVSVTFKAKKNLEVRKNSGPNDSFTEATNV

[7] = biological target: Tyrosine-protein kinase Lck (Homo sapiens, UniProt P06239); test: DRUGMATRIX: Protein Tyrosine Kinase, LCK enzyme inhibition (substrate: Poly(Glu:Tyr)); assay type: cell-based, Insect cells; conditions: insect cells; Not Active = under 50% inhibition at 10 µM
Chain of Tyrosine-protein kinase Lck (P06239 whole entry): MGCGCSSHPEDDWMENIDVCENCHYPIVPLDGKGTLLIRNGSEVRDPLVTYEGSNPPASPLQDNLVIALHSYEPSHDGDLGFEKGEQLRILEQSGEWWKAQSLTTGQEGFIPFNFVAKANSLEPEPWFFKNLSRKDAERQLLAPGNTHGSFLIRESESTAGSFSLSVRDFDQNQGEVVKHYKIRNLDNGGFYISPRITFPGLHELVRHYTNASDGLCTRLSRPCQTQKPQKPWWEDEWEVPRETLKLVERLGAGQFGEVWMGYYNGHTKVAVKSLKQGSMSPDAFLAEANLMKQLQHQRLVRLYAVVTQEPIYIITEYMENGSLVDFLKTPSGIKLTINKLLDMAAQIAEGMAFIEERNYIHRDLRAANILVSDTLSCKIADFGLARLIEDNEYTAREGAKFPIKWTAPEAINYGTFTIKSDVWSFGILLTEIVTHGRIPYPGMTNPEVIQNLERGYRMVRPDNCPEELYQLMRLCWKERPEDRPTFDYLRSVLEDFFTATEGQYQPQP

Chain of C-C chemokine receptor type 5 (P51681 whole entry): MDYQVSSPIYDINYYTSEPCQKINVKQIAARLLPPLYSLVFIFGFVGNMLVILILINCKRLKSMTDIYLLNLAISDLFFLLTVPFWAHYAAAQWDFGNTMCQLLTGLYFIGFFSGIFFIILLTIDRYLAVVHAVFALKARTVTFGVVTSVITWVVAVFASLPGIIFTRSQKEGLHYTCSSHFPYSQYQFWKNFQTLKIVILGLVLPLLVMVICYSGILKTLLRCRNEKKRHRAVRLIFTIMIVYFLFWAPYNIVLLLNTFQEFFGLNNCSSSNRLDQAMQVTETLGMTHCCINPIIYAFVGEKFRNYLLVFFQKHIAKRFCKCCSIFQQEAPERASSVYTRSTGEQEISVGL

CCCCC1=NC2(CCCC2)C(=O)N1Cc1ccc(-c2ccccc2-c2nnn[nH]2)cc1 [IRBESARTAN]
Not Active: IC50 [1] | IC50 (Carbonic anhydrase 2) | IC50 [2] | IC50 [3] | IC50 [4] | Ki [4] | IC50 [5] | IC50 [6] | IC50 [7]

O=c1c(-c2ccc(O)cc2)coc2cc(O)cc(O)c12 [GENISTEIN]
Not Active: IC50 [1] | IC50 (Carbonic anhydrase 2) | IC50 [2] | IC50 [3] | IC50 [4] | Ki [4] | IC50 [5] | IC50 [6] | IC50 [7]

CN(C)C(=N)NC(=N)N [METFORMIN]
Not Active: IC50 [1] | IC50 (Carbonic anhydrase 2) | IC50 [2] | IC50 [3] | IC50 [4] | Ki [4] | IC50 [5] | IC50 [6] | IC50 [7]

C[C@H]1O[C@H](O[C@H]2[C@H](O)[C@@H](O)[C@@H](O[C@H]3[C@H](O)[C@@H](O)C(O)O[C@@H]3CO)O[C@@H]2CO)[C@H](O)[C@@H](O)[C@@H]1N[C@H]1C=C(CO)[C@@H](O)[C@H](O)[C@H]1O (some centres undefined) [ACARBOSE]
Not Active: IC50 [1] | IC50 (Carbonic anhydrase 2) | IC50 [2] | IC50 [3] | IC50 [4] | Ki [4] | IC50 [5] | IC50 [6] | IC50 [7]

COc1ccccc1N
Not Active: IC50 [1] | IC50 (Carbonic anhydrase 2) | IC50 [2] | IC50 [3] | IC50 [4] | Ki [4] | IC50 [5] | IC50 [6] | IC50 [7]

CC(O)COC[C@H]1O[C@@H]2O[C@H]3[C@H](O)[C@@H](O)[C@@H](O[C@H]4[C@H](O)[C@@H](O)[C@@H](O[C@H]5[C@H](O)[C@@H](O)[C@@H](O[C@H]6[C@H](O)[C@@H](O)[C@@H](O[C@H]7[C@H](O)[C@@H](O)[C@@H](O[C@H]8[C@H](O)[C@@H](O)[C@@H](O[C@H]1[C@H](O)[C@H]2O)O[C@@H]8COCC(C)O)O[C@@H]7COCC(C)O)O[C@@H]6COCC(C)O)O[C@@H]5COCC(C)O)O[C@@H]4COCC(C)O)O[C@@H]3COCC(C)O (stereo partly drawn) [2-HYDROXYPROPYL-BETA-CYCLODEXTRIN]
Not Active: IC50 [1] | IC50 (Carbonic anhydrase 2) | IC50 [2] | IC50 [3] | IC50 [4] | Ki [4] | IC50 [5] | IC50 [6] | IC50 [7]

N[C@@H](Cn1ccc(=O)c(O)c1)C(=O)O [L-MIMOSINE]
Not Active: IC50 [1] | IC50 (Carbonic anhydrase 2) | IC50 [2] | IC50 [3] | IC50 [4] | Ki [4] | IC50 [5] | IC50 [6] | IC50 [7]

CS(=O)(=O)Nc1ccc([N+](=O)[O-])cc1Oc1ccccc1 [NIMESULIDE]
Not Active: IC50 [1] | IC50 (Carbonic anhydrase 2) | IC50 [2] | IC50 [3] | IC50 [4] | Ki [4] | IC50 [5] | IC50 [6] | IC50 [7]

C[N+](C)(C)C[C@H](O)CC(=O)[O-] [LEVOCARNITINE]
Not Active: IC50 [1] | IC50 (Carbonic anhydrase 2) | IC50 [2] | IC50 [3] | IC50 [4] | Ki [4] | IC50 [5] | IC50 [6] | IC50 [7]

O=C(O)c1cc(-c2ccc(F)cc2F)ccc1O [DIFLUNISAL]
Not Active: IC50 [1] | IC50 (Carbonic anhydrase 2) | IC50 [2] | IC50 [3] | IC50 [4] | Ki [4] | Ki [5] | IC50 [6] | IC50 [7]

CN1CCN(C(c2ccccc2)c2ccccc2)CC1 [CYCLIZINE]
Not Active: IC50 [1] | IC50 (Carbonic anhydrase 2) | IC50 [2] | IC50 [3] | IC50 [4] | Ki [4] | IC50 [5] | IC50 [6] | IC50 [7]
